Experimental data taken from the supplement of paper PMC10307832.

How the values were obtained:
Assay in all cases: relative viability (nuclei count vs DMSO), 5 days (fraction); higher = more cells survive
[1] = compound: COC1=CC(c2cc3ccccc3[nH]2)=N/C1=C\c1[nH]c(C)cc1C [Obatoclax] + CC(=O)Nc1cccc(-n2c(=O)n(C3CC3)c(=O)c3c(Nc4ccc(I)cc4F)n(C)c(=O)c(C)c32)c1 [Trametinib] (partner 0.02 µM)
Summary of the method: (§1)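 Lung cancer cell lines in 1536-well plates were dosed by pin tool the day after seeding, either with one drug alone or with a fixed anchor-drug dose plus five library-drug doses (not always all listed) in √10 steps. After 5 days, cells were fixed and their nuclei stained in one step (final 0.05% Triton X-100, 1% formaldehyde, 1 ug/ml Hoechst), then counted on 4× images. Relative viability is the nuclei count in treated wells divided by that in vehicle wells. Values are medians of duplicate plates.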

[2] = compound: CC1=CC(=NN1)NC2=CC(=NC(=N2)/C=C/C3=CC=CC=C3)N4CCN(CC4)C + CS(=O)(=O)N1CCN(Cc2cc3nc(-c4cccc5[nH]ncc45)nc(N4CCOCC4)c3s2)CC1 [Pictilisib] (partner 1 µM)
Summary of the method: as §1

[3] = compound: COC1=CC(c2cc3ccccc3[nH]2)=N/C1=C\c1[nH]c(C)cc1C [Obatoclax] + Cc1nc(NC(=O)N2CCC[C@H]2C(N)=O)sc1-c1ccnc(C(C)(C)C(F)(F)F)c1 [Alpelisib] (partner 2 µM)
Summary of the method: as §1

[4] = compound: CC(C)C[C@H](NC(=O)[C@H](Cc1ccccc1)NC(=O)c1cnccn1)B(O)O [Bortezomib] + CC(=O)Nc1cccc(-n2c(=O)n(C3CC3)c(=O)c3c(Nc4ccc(I)cc4F)n(C)c(=O)c(C)c32)c1 [Trametinib] (partner 0.02 µM)
Summary of the method: as §1

**Q.** With NCI-H650 as the cell line, how does the relative viability ([1]; first compound 0.01 µM) read?
**A.** 0.888

**Q.** What about the relative viability ([1]; first compound 0.03162 µM) of the same cell line?
**A.** 1.02

**Q.** What about the relative viability ([1]; first compound 0.3162 µM) of the same cell line?
**A.** 0.373

**Q.** What about the relative viability ([1]; first compound 1 µM) of the same cell line?
**A.** 0.625

**Q.** What about the relative viability ([2]; first compound 0.08 µM) of the same cell line?
**A.** 0.763

**Q.** And the relative viability ([2]; first compound 0.253 µM)?
**A.** 0.92

**Q.** And the relative viability ([2]; first compound 0.8 µM)?
**A.** 0.93

**Q.** And the relative viability ([2]; first compound 2.53 µM)?
**A.** 0.719

**Q.** And the relative viability ([2]; first compound 8 µM)?
**A.** 0.183

**Q.** And the relative viability ([3]; first compound 0.01 µM)?
**A.** 0.975

**Q.** What about the relative viability ([3]; first compound 0.03162 µM) of the same cell line?
**A.** 1.1

**Q.** What about the relative viability ([3]; first compound 0.1 µM) of the same cell line?
**A.** 0.811

**Q.** And the relative viability ([3]; first compound 0.3162 µM)?
**A.** 0.693

**Q.** What about the relative viability ([3]; first compound 1 µM) of the same cell line?
**A.** 0.446

**Q.** What about the relative viability ([4]; first compound 0.0002 µM) of the same cell line?
**A.** 0.936

**Q.** And the relative viability ([4]; first compound 0.000632 µM)?
**A.** 1.1

**Q.** What about the relative viability ([4]; first compound 0.002 µM) of the same cell line?
**A.** 0.857

**Q.** And the relative viability ([4]; first compound 0.006325 µM)?
**A.** 0.361

**Q.** What about the relative viability ([4]; first compound 0.02 µM) of the same cell line?
**A.** 0.146
